Results taken from ChEMBL document CHEMBL1128967, “Quantification of the extent of attenuation of the rate of turnover chemistry of the TEM-1 -lactamase by the -1R-hydroxyethyl group in substrates” (Bioorg Med Chem Lett, 1996).

What was measured:
[1] = (§1) Compound was evaluated for the beta-lactamase activity as a substrate.
[2] = Compound was evaluated for the beta-lactamase activity as substrate expressed as ratio of kcat/Km.
[3] = Compound was evaluated for beta-lactamase activity as a substrate.
[4] = molecular target: Beta-lactamase (Enterobacter cloacae) (UniProt P05364); experiment: as §1
Chain of Beta-lactamase (Enterobacter cloacae) (P05364 21-381 limits assumed): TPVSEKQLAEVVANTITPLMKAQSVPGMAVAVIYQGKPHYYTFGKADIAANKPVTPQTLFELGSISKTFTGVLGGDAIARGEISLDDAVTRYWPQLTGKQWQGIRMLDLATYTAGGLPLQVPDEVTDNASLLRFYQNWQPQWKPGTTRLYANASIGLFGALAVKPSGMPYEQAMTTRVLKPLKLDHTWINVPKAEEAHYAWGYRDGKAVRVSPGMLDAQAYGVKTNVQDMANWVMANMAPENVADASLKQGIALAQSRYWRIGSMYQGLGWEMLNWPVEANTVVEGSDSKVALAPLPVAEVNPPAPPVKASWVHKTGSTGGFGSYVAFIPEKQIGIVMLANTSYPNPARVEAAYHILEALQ

[5] = Compound was evaluated for the beta-lactamase activity as a substrate expressed as ratio of kcat/Km.

Compound: C[C@@H](O)[C@H]1C(=O)N2C(C(=O)O)=C(SCCNC=N)C[C@H]12
- k cat [1]: 0.04 s⁻¹
- Ratio [2]: 1480 M⁻¹ s⁻¹
- Km [3]: 27 µM

Compound: C[C@@H](O)[C@@H]1C(=O)N2[C@@H]1SC(C)(C)[C@@H]2C(=O)O
- Km [1]: 1.6 µM
- Ks [1]: 13.5 µM
- k3 [1]: 0.5 s⁻¹
- k cat [1]: 0.4 s⁻¹
- k cat/Km [1]: 2.8 M⁻¹ s⁻¹
- k2 [4]: 3.7 s⁻¹

Compound: C[C@@H](O)[C@H]1C(=O)N2[C@@H]1SC(C)(C)[C@@H]2C(=O)O
- k cat/Km [2]: 27 M⁻¹ s⁻¹

Compound: CC1(C)S[C@@H]2CC(=O)N2[C@H]1C(=O)O
- k cat/Km [5]: 6.6 M⁻¹ s⁻¹
